Data taken from the supplement of paper PMC10307832.

Legend:
Assay in all cases: relative viability (nuclei count vs DMSO), 5 days (fraction); higher = more cells survive
[1] = compound: C1=CC=C2C(=C1)N=C(S2)C(C#N)C3=NC(=NC=C3)NCCC4=CN=CC=C4 + O=C(CCCCCCC(=O)Nc1ccccc1)NO [Vorinostat] (partner 1 µM)
Procedure, shortened: (§1)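 Lung cancer cell lines in 1536-well plates were dosed by pin tool the day after seeding, either with one drug alone or with a fixed anchor-drug dose plus five library-drug doses (not always all listed) in √10 steps. After 5 days, cells were fixed and their nuclei stained in one step (final 0.05% Triton X-100, 1% formaldehyde, 1 ug/ml Hoechst), then counted on 4× images. Relative viability is the nuclei count in treated wells divided by that in vehicle wells. Values are medians of duplicate plates.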

[2] = compound: COc1cc2/c(=N/c3ccc(Br)cc3F)nc[nH]c2cc1OCC1CCN(C)CC1 [Vandetanib] + CC(C)C[C@H](NC(=O)[C@H](Cc1ccccc1)NC(=O)c1cnccn1)B(O)O [Bortezomib] (partner 0.002 µM)
Procedure, shortened: as §1

[3] = compound: C#Cc1cccc(Nc2ncnc3cc(OC)c(OCCCCCCC(=O)NO)cc23)c1 [CUDC-101] + Cc1nc(NC(=O)N2CCC[C@H]2C(N)=O)sc1-c1ccnc(C(C)(C)C(F)(F)F)c1 [Alpelisib] (partner 2 µM)
Procedure, shortened: as §1

[4] = compound: COc1cc2/c(=N/c3ccc(Br)cc3F)nc[nH]c2cc1OCC1CCN(C)CC1 [Vandetanib] + N=C(N)NC(=N)NCCc1ccccc1 [Phenformin] (partner 250 µM)
Procedure, shortened: as §1

Cell Line	relative viability ([1]; first compound 0.005 µM)	relative viability ([1]; first compound 0.01581 µM)	relative viability ([1]; first compound 0.05 µM)	relative viability ([1]; first compound 0.1581 µM)	relative viability ([1]; first compound 0.5 µM)	relative viability ([2]; first compound 0.02 µM)	relative viability ([2]; first compound 0.06325 µM)	relative viability ([2]; first compound 0.2 µM)	relative viability ([2]; first compound 0.6325 µM)	relative viability ([2]; first compound 2 µM)	relative viability ([3]; first compound 0.01 µM)	relative viability ([3]; first compound 0.03162 µM)	relative viability ([3]; first compound 0.1 µM)	relative viability ([3]; first compound 0.3162 µM)	relative viability ([3]; first compound 1 µM)	relative viability ([4]; first compound 0.02 µM)	relative viability ([4]; first compound 0.06325 µM)	relative viability ([4]; first compound 0.2 µM)	relative viability ([4]; first compound 0.6325 µM)	relative viability ([4]; first compound 2 µM)
NCI-H441	0.587	0.84	0.818	0.789	0.643	0.449	0.459	0.373	0.547	0.386	0.842	0.847	0.879	0.589	0.572	0.849	0.783	0.898	0.916	0.717
SW 1573	0.577	0.82	0.43	0.846	0.618	1	0.817	1.16	1.01	0.879	0.861	0.797	0.852	1.08	0.739	0.357	0.382	0.397	0.347	0.351
HCC-78	0.485	0.391	0.509	0.524	0.42	0.618	0.6	0.511	0.668	0.383	0.288	0.282	0.452	0.256	0.146	0.744	0.638	0.662	0.664	0.627
NCI-H2023	0.566	1.09	0.454	0.763	0.607	0.924	0.839	0.96	1.03	1.04	0.552	0.581	0.564	0.663	0.565	0.399	0.402	0.354	0.323	0.328
NCI-H2126	0.637	0.75	0.701	0.855	0.647	1.09	1.07	1.06	1.08	1.06	0.771	0.706	0.7	0.74	0.531	0.541	0.5	0.522	0.495	0.49
RERF-LC-KJ	0.603	0.623	0.609	0.7	0.578	1.05	0.961	1.05	0.951	0.958	0.795	0.835	0.828	0.835	0.742	0.436	0.379	0.37	0.375	0.335
NCI-H3122	0.923	1.34	0.97	1.05	1.1	0.978	1.03	1.05	0.953	1	0.666	0.83	0.808	0.875	0.969	0.348	0.374	0.327	0.303	0.333
NCI-H322M	0.771	0.842	0.789	0.9	0.935	1.18	1.13	1.18	1.13	1.12	0.775	0.704	0.725	0.733	0.725	0.7	0.731	0.852	0.622	0.493
NCI-H647	0.427	0.553	0.411	0.661	0.605	0.962	0.947	1.05	0.817	0.804	1.48	1.14	1.33	1.18	0.794	0.524	0.51	0.412	0.513	0.501
EMC-BAC-2	0.491	0.299	0.48	0.476	0.411	1.02	1.04	1.01	1.03	1.04	0.759	0.737	0.757	0.741	0.499	0.51	0.506	0.339	0.485	0.463
PC-14	0.642	0.769	0.675	0.753	0.576	1.03	0.939	1.05	0.295	0.258	0.983	0.894	0.62	0.673	0.287	0.576	0.478	0.215	0.235	0.125
201T	0.819	0.918	0.949	0.997	0.959	1.03	1.08	1.13	1.03	1.06	0.932	0.937	0.926	1.05	0.88	0.466	0.406	0.427	0.403	0.424
LXF-289	0.688	0.862	0.811	1	0.729	0.999	0.895	0.932	1.04	0.986	0.991	1.08	0.994	1.07	0.815	0.503	0.5	0.499	0.489	0.509
